# Patent US20250034136A1 (Nimbus Wadjet, Inc., priority 2023, published 2025)
# Target: WRN (BV08), human Werner helicase (Uniprot Q14191, amino acids 517-1235 with L1074F point mutation) (Homo sapiens (Human), UniProt Q14191, L1074F)
# Assay: WRN (BV08) ADP-Glo assay
# Type: biochemical
# Settings: class symbols A-E, read-out: ADP-Glo_hWRN_IC50
# Method: Bovine skin gelatin (BSG), dimethyl sulfoxide (DMSO), Pluronic F-127 and tris(2-carboxyethyl)phosphine hydrochloride solution (TCEP) were purchased from Sigma-Aldrich (St. Louis, MO) at the highest level of purity possible. […] DNA strands were annealed by heating to 95° C. for 5 minutes followed by slow cooling to room temperature. Compounds in 100% DMSO (0.1 μl) were spotted into a 384-well white polystyrene Optiplate-384 (Perkin Elmer; Waltham, MA) assay plate using a LabCyte Echo 550 (Agilent; Santa Clara, CA). DMSO (0.1 μl) was added to columns 12, rows A-H and column 24, rows I-P for the maximum signal control. […] Compounds/DMSO were preincubated for 15 minutes at 25° C. with 5 μl 2×WRN (BV08), prepared as described below, in assay buffer containing 20 mM Bicine (pH=7.5), 1 mM MgCl2, 10 mM KCl, 0.1% Pluronic F-127, 0.005% BSG, 1 mM TCEP. The reaction was initiated by the addition of 5 μl 2× substrate mixture in assay buffer and incubated for 60 minutes at 25° C. The final concentrations of the assay components were 0.15 nM WRN, 5 μM ATP, and 0.1 nM DNA duplex. The final DMSO concentration was 1% and the reference compound concentration (NSC-617145) used for the minimal signal control was 20 μM. The reaction was stopped by the addition of the ADP-Glo Kit components (Promega; Madison, WI) as directed and the relative luminescence units (RLU) were read on an Envision 2104 (Perkin Elmer; Waltham, MA). % inhibition calculation:
# [formula] • Where RLU=relative luminescence units, sample=signal in sample well, and MIN and MAX are the respective minimum and maximum signal controls.
# [formula] • Where top and bottom are normally allowed to float but may be fixed at 100 or 0 respectively in a 3-parameter fit. Y is the % inhibition and X is the compound concentration.
# Molecular Biology and virus production. […] The baculovirus from the expression plasmid WRN—BV08 was generated from transfection and amplification following the manufacturer's instructions.
# Sf9 cells grown in SF900II media were infected with 1:200 WRN—BV08 P2 virus and incubated for protein expression for 72 h at 27° C. The WRN protein was purified using the following protocol. The cell pellets were thawed and resuspended in buffer A (50 mM Tris, pH 7.5, 500 mM NaCl, 1 mM TCEP, 10% Glycerol) supplemented with 0.5% CHAPS, 1 mM PMSF, 1 μg/ml Leupeptin, 1 μg/ml Pepstatin, and the Pierce Universal Nuclease and cocktail tablet. Cleared lysates were loaded onto a Ni Sepharose™ excel column and washed with buffer A and bound protein was eluted with buffer A supplemented with 300 mM imidazole. The eluted protein was dialyzed against buffer A and digested by His-tagged TEV (1:5 ratio) overnight at 4° C. ZnCl2 was added into the sample at final 15 μM before loading onto a second Ni Sepharose™ excel column. Untagged WRN protein was eluted from the column with buffer A supplemented with 20 mM imidazole, dialyzed overnight into buffer B (50 mM Tris, pH 7.5, 1 mM TCEP, 10% Glycerol) supplemented with 150 mM NaCl and loaded onto a Heparin column. Proteins were eluted with a step gradient of buffer B supplemented with 150 mM, 200 mM, 300 mM and 500 mM NaCl. WRN containing fractions were pooled and concentrated prior to loading on to size exclusion chromatography using a HiLoad 16/600 Superdex™ 200 pg column (GE Healthcare) in buffer C (20 mM HTEPES, pH 7.5, 250 mM NaCl, 0.25 mM TCEP, […]).
# Chain of WRN (BV08), human Werner helicase (Uniprot Q14191, amino acids 517-1235 with L1074F point mutation) (Q14191 other isoform, or with tags, fused parts or gaps L1074F (already in the parent)): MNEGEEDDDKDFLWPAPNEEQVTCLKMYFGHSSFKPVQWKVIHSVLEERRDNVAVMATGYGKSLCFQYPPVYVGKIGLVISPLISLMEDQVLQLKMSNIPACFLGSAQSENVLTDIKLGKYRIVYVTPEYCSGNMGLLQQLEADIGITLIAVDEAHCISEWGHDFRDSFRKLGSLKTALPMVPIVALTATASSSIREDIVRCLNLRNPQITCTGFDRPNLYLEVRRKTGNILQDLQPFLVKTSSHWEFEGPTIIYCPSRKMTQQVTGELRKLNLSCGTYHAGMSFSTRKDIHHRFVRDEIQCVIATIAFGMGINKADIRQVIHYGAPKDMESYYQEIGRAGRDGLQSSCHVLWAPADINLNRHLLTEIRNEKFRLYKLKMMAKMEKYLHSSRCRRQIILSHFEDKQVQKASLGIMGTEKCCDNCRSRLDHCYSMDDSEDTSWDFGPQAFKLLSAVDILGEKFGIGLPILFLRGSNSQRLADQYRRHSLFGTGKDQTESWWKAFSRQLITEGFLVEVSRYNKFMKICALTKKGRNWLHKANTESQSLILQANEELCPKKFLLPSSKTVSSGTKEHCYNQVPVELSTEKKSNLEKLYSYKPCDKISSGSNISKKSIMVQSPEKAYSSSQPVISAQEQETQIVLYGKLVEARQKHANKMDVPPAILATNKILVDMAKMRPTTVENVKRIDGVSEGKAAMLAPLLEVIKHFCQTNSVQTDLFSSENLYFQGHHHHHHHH
row,IC50,SMILES
1,≤ 5 nM,"CCc1c(N2CCN(C(=O)c3ncnc(C)c3O)C[C@@H]2C)c(=O)c2nc(N3CC[C@@H]4C[C@@H]43)cnc2n1CC(=O)Nc1ccc(C(F)(F)F)cc1Cl (single isomer, unassigned) [I-193]"
2,5 to 50 nM,"CCc1c(N2CCN(C(=O)c3ncnc(C)c3O)[C@H](C)[C@@H]2C)c(=O)c2nc(N(C)C)cnc2n1CC(=O)Nc1ccc(C(F)(F)F)cc1Cl (single isomer, unassigned) [I-198, N-(2-chloro-4-(trifluoromethyl)phenyl)-2-(2-(dimethylamino)-6-ethyl-7-(4-(5-hydroxy-6-methylpyrimidine-4-carbonyl)-2,3-dimethylpiperazin-1-yl)-8-oxopyrido[2,3-b]pyrazin-5(8H)-yl)acetamide]"
3,50 to 100 nM,"CCc1c(N2C[C@H]3CC[C@@H]2CN3C(=O)c2ncnc(C)c2O)c(=O)c2nc(N(C)C)cnc2n1CC(=O)Nc1ccc(C(F)(F)F)cc1Cl (single isomer, unassigned) [I-248, N-(2-chloro-4-(trifluoromethyl)phenyl)-2-(2-(dimethylamino)-6-ethyl-7-(5-(5-hydroxy-6-methylpyrimidine-4-carbonyl)-2,5-diazabicyclo[2.2.2]octan-2-yl)-8-oxopyrido[2,3-b]pyrazin-5(8H)-yl)acetamide]"
4,5 to 50 nM,"CCc1c(N2CCN(C(=O)c3ncnc(C)c3O)C3COCC32)c(=O)c2nc(N(C)C)cnc2n1CC(=O)Nc1ccc(C(F)(F)F)cc1Cl (single isomer, unassigned) [I-295, N-(2-chloro-4-(trifluoromethyl)phenyl)-2-(2-(dimethylamino)-6-ethyl-7-(4-(5-hydroxy-6-methylpyrimidine-4-carbonyl)hexahydrofuro[3,4-b]pyrazin-1(2H)-yl)-8-oxopyrido[2,3-b]pyrazin-5(8H)-yl)acetamide]"
5,5 to 50 nM,"CCc1c(N2CCN(C(=O)c3ncnc(C)c3O)[C@@H](C)C2)c(=O)c2nc(N(C)C)cnc2n1CC(=O)Nc1ccc(C(F)(F)F)cc1Cl [I-173, N-[2-chloro-4-(trifluoromethyl)phenyl]-2-[2-(dimethylamino)-6-ethyl-7-[(3S)-4-(5-hydroxy-6-methylpyrimidine-4-carbonyl)-3-methylpiperazin-1-yl]-8-oxo-5H,8H-pyrido[2,3-b]pyrazin-5-yl]acetamide]"
6,5 to 50 nM,"C#C[C@H]1CN(C(=O)c2ncnc(C)c2O)CCN1c1c(CC)n(CC(=O)Nc2ccc(C(F)(F)F)cc2Cl)c2ncc(N(C)C)nc2c1=O [I-260, N-[2-chloro-4-(trifluoromethyl)phenyl]-2-[2-(dimethylamino)-6-ethyl-7-[(2S)-2-ethynyl-4-(5-hydroxy-6-methylpyrimidine-4-carbonyl)piperazin-1-yl]-8-oxo-5H,8H-pyrido[2,3-b]pyrazin-5-yl]acetamide]"

# System: p21 induction in HCT116 cells
# Assay: p21 induction in HCT116 cells
# Type: cell-based
# Settings: Homo sapiens, HCT-116, 24 h, HCT116 cells, 24 h compound incubation; read-out: P21_EC50
# Method: The colon carcinoma cell line HCT116 was obtained from ATCC and cultured in growth medium consisting of Mccoy's 5A Medium (Gibco 16600108) supplemented with 10% FBS (Transgene FS201-02) and 100 units/mL penicillin-streptomycin (Gibco 15140122) and maintained at 37° C. under 5% CO2. On the day of seeding, 2,000 cells in 30 μL of culture media were plated per well to Poly-D-Lysine 384 Well Black Clear Plates (Biocoat 356663) and incubated overnight at 37° C. under 5% CO2. The following day, compounds were serially diluted in DMSO for a total of 11 test concentrations. […] Next, 150 nL of diluted compound was added in duplicate to the assay plate, using an Echo 655 (Labcyte). The plate was centrifuged at 500 RPM for 1 min and then incubated at 37° C. under 5% CO2 for 24 h. After 24 h, medium was removed, and cells were fixed by adding 40 μL of 4% paraformaldehyde solution to each well and incubated for 20 min at room temperature. The plate was then washed 4 times with 100 μL per well of wash buffer (PBS with 0.1% Tween-20) using a microplate washer. Next, 30 μL of ice-cold methanol was added to each well and the plate was incubated at −20° C. for 10 min. The plate was washed 4 times with 100 μL per well of wash buffer by a microplate washer, then 30 μL per well of blocking buffer (Intercept PBS blocking buffer (LI-COR 927-70001) with 0.05% Tween-20) was added and the plate was incubated at room temperature with shaking for 2 h. Next, to each test well, 20 μL of primary antibody solution (p21 Waf1/CIP (12D1) RabbitmAb (Cell Signaling Technologies 2947) diluted 1:1000 and GAPDH (D4C6R) Mouse mAb (Cell Signaling Technologies 97166) diluted 1:2000 in blocking buffer) was added and the plate was placed at 4° C., overnight. The following day, the plate was washed 5 times with 100 μL per well of wash buffer using a microplate washer for 5 min. 20 μL per well of secondary antibody (IRDye 680CW Goat anti-Mouse IgG (H+L) (LI-COR 926-68070) diluted 1: 2000 in Blocking Buffer and IRDye 800CW Goat anti-Rabbit IgG (H+L) (LI-COR 926-32211) diluted 1: 2000 in Blocking Buffer) was then added and the plate was stored for 2 h in the dark at room temperature with shaking. The plate was then washed 4 times with 100 μL per well of wash buffer again using a microplate washer. Finally, the p21 signal and the GAPDH signal were quantified using a LI-COR Odyssey CLx Imager machine reading at 800 nm and 700 nm, respectively. Each plate contained DMSO control (low control) and an internal reference WRN inhibitor (high control) respectively. […] EC50 values for each compound were generated after non-linear regression curve fitting using commercially available software.
row,EC50,SMILES
1,< 500 nM,"CCc1c(N2CCN(C(=O)c3ncnc(C)c3O)C3CCC32)c(=O)c2nc(N(C)C)cnc2n1CC(=O)Nc1ccc(C(F)(F)F)cc1Cl (racemic) [I-34, rac-N-(2-chloro-4-(trifluoromethyl)phenyl)-2-(2-(dimethylamino)-6-ethyl-7-(5-(5-hydroxy-6-methylpyrimidine-4-carbonyl)-2,5-diazabicyclo[4.2.0]octan-2-yl)-8-oxopyrido[2,3-b]pyrazin-5(8H)-yl)acetamide]"
2,500 to 2000 nM,"CCc1c(N2CCN(C(=O)c3ncnc(C)c3O)[C@H]3CC[C@H]32)c(=O)c2nc(N(C)C)cnc2n1CC(=O)Nc1ccc(C(F)(F)F)cc1Cl (racemic) [I-106, rac-N-(2-chloro-4-(trifluoromethyl)phenyl)-2-(2-(dimethylamino)-6-ethyl-7-(5-(5-hydroxy-6-methylpyrimidine-4-carbonyl)-2,5-diazabicyclo[4.2.0]octan-2-yl)-8-oxopyrido[2,3-b]pyrazin-5(8H)-yl)acetamide]"
3,2000 to 5000 nM,"CCc1c(N2CCN(C(=O)c3ncnc(C)c3O)[C@@H]3CC[C@H]32)c(=O)c2nc(N(C)C)cnc2n1CC(=O)Nc1ccc(C(F)(F)F)cc1Cl (single isomer, unassigned) [I-39, N-(2-chloro-4-(trifluoromethyl)phenyl)-2-(2-(dimethylamino)-6-ethyl-7-(−5-(5-hydroxy-6-methylpyrimidine-4-carbonyl)-2,5-diazabicyclo[4.2.0]octan-2-yl)-8-oxopyrido[2,3-b]pyrazin-5(8H)-yl)acetamide]"
4,< 500 nM,"CCc1c(N2CCN(C(=O)c3ncnc(C)c3O)[C@H]3CC[C@@H]32)c(=O)c2nc(N(C)C)cnc2n1CC(=O)Nc1ccc(C(F)(F)F)cc1Cl (single isomer, unassigned) [I-40, N-(2-chloro-4-(trifluoromethyl)phenyl)-2-(2-(dimethylamino)-6-ethyl-7-(−5-(5-hydroxy-6-methylpyrimidine-4-carbonyl)-2,5-diazabicyclo[4.2.0]octan-2-yl)-8-oxopyrido[2,3-b]pyrazin-5(8H)-yl)acetamide]"

# Same assay, conditions: Homo sapiens, HCT-116, 24 h, read-out: P21_EC50
row,SMILES,EC50
1,"[2H]C([2H])([2H])N(c1cnc2c(n1)c(=O)c(N1CCN(C(=O)c3ncnc(C)c3O)[C@H]3CC[C@@H]31)c(CC)n2CC(=O)Nc1ccc(C(F)(F)F)cc1Cl)C([2H])([2H])[2H] [I-101, 2-(2-(bis(methyl-d3)amino)-6-ethyl-7-((1S,6S)-5-(5-hydroxy-6-methylpyrimidine-4-carbonyl)-2,5-diazabicyclo[4.2.0]octan-2-yl)-8-oxopyrido[2,3-b]pyrazin-5(8H)-yl)-N-(2-chloro-4-(trifluoromethyl)phenyl)acetamide]",< 500 nM
